Measured values reported in ChEMBL document CHEMBL4387730, “Discovery of a new autophagy inducer for A549 lung cancer cells” (Bioorg Med Chem, 2019).
Active and inactive are the calls of the source. No cut-off for these calls is given here.

Legend:
A549 [1] = experiment: Cytotoxicity against human A549 cells assessed as reduction in viability at 0.1 to 20 uM after 24 hrs by SRB assay; type: functional, cell-based
A549 [2] = experiment: Cytotoxicity against human A549 cells assessed as reduction in viability at 0.1 to 20 uM after 48 hrs by SRB assay; type: functional, cell-based
A549 [3] = experiment: Cytotoxicity against human A549 cells assessed as reduction in viability after 48 hrs by SRB assay; type: functional, cell-based; conditions: A549, 48 h
A549 [4] = experiment: Induction of morphological changes in human A549 cells assessed as apoptotic body formation at 0.1 to 20 uM after 3 to 24 hrs by acridine orange staining based inverted phase contrast microscopic method; type: functional, cell-based
A549 [5] = experiment: Induction of necrosis in human A549 cells assessed as increase in LDH activity at 0.1 to 5 uM after 24 hrs by absorption spectrophotometric method; type: cell-based; conditions: a549, 24 h
A549 [6] = experiment: Induction of necrosis in human A549 cells assessed as increase in LDH activity at 10 uM after 24 hrs by absorption spectrophotometric method; type: cell-based; conditions: a549, 24 h
A549 [7] = experiment: Induction of apoptosis in human A549 cells assessed as increase in Cleaved-PARP expression at 1 to 10 uM after 24 hrs by Western blot analysis; type: functional, cell-based
A549 [8] = experiment: Induction of autophagy in human A549 cells assessed as accumulation of acidic vesicles at 0.05 to 20 uM after 24 hrs by acridine orange staining based fluorescence microscopic method; type: functional, cell-based
A549 [9] = experiment: Induction of autophagy in human A549 cells assessed as increase in […] expression at 1 to 10 uM after 24 hrs by Western blot analysis; type: functional, cell-based
A549 [10] = experiment: Inhibition of autophagy flux in human A549 assessed as increase in p62 expression at 1 to 10 uM after 24 hrs by Western blot analysis; type: functional, cell-based
A549 [11] = experiment: Induction of autophagy in human A549 cells assessed decrease in p62 expression at 1 to 10 uM after 24 hrs by Western blot analysis; type: functional, cell-based
U-87 MG = experiment: Induction of autophagy in human U87 cells transfected with GFP-fused LC3-II assessed as punctiform pattern of LC3-II at 1 to 10 uM after 24 hrs by laser scanning confocal microscopic method; type: functional, cell-based; conditions: U-87MG ATCC
A549 [12] = experiment: Induction of autophagic flux in human A549 cells assessed as increase in LC3-II protein level at 10 uM after 24 hrs in presence of V-ATPase inhibitor bafilomycin-A1 by Western blot analysis; type: functional, cell-based
mTORC1 (Homo sapiens) = mTORC1 (Homo sapiens) (UniProt P42345+Q8N122+Q9BVC4); experiment: Inhibition of mTORC1 in human A549 cells assessed as reduction in p70S6K phosphorylation at 10 uM after 3 to 24 hrs by Western blot analysis; type: cell-based
mTORC1 (Homo sapiens), sequence (Q8N122 whole entry, looked up, other chains not shown): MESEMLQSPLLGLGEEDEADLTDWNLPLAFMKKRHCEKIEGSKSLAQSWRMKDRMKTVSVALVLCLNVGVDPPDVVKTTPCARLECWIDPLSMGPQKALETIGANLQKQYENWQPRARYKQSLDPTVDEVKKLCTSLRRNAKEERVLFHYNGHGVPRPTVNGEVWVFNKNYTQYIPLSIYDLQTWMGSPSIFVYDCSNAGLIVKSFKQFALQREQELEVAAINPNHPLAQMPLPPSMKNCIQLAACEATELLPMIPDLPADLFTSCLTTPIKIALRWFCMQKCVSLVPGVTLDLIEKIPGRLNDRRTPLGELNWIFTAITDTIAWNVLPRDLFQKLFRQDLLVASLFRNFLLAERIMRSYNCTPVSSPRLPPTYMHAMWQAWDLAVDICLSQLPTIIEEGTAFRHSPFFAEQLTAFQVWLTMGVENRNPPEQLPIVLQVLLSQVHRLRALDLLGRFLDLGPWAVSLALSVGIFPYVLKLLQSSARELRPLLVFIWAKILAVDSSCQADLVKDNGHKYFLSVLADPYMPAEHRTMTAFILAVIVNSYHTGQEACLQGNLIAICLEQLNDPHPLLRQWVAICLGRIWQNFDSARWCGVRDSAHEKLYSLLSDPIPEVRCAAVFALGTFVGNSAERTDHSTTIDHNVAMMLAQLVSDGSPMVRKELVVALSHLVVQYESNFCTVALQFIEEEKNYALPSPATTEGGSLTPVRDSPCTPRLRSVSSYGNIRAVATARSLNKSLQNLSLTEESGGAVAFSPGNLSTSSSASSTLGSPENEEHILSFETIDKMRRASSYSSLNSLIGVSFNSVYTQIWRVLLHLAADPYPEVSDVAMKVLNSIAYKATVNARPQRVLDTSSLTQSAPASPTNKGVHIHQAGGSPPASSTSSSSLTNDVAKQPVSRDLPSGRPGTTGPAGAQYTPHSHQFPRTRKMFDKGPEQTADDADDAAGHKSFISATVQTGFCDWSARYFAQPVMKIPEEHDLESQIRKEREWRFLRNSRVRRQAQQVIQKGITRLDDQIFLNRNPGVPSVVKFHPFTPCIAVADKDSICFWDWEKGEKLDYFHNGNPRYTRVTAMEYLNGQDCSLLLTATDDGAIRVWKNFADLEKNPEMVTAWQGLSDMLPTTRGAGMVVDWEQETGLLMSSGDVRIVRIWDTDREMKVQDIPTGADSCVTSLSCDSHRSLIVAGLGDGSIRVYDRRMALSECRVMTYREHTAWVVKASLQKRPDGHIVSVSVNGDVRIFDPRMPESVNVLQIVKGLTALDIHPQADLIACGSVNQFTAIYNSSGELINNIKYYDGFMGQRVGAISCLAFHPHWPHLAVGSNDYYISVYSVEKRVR
mTORC1 (Homo sapiens), sequence (Q9BVC4 whole entry, looked up, other chains not shown): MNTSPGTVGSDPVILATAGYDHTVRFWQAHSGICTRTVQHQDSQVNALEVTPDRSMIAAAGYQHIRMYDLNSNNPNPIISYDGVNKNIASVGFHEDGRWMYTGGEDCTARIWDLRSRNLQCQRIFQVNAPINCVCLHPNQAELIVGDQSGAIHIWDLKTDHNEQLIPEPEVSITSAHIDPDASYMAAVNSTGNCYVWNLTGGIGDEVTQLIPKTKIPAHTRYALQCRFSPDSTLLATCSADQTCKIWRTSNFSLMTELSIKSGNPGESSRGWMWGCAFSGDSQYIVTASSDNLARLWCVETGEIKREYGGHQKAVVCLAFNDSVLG

Row | Compound | Activity (A549 [1]) | Activity (A549 [2]) | further results
1 | O=Cc1ccc2c(c1)c1ccccc1n2CCCN1CCNCC1 | inactive | inactive | –
2 | CCN(CC)c1ccc2ccc(=O)oc2c1 | inactive | inactive | –
3 | O=c1[nH]cc(F)c(=O)[nH]1 [FLUOROURACIL] | Active | Active | IC50 (A549 [3]): 7.1 µM
4 | CC1=[N+](C)c2ccccc2C1(C)C | inactive | inactive | –
5 | CCN(CC)c1ccc2cc(-c3ccc(C)cc3)c(=O)oc2c1 | inactive | inactive | –
6 | CC1(C)CC(/C=C/c2ccc(N3CCNCC3)cc2)=CC(=C(C#N)C#N)C1 | Active | Active | IC50 (A549 [3]): 7.1 µM; Activity (A549 [4]): Active; Activity (A549 [5]): Non-Toxic; Activity (A549 [6]): Toxic; Activity (A549 [7]): Active; Activity (A549 [8]): Active; Activity (A549 [9]): Active; inhibition (A549 [10]): Active
7 | CCN(CC)c1ccc2cc(-c3ccc(N)cc3)c(=O)oc2c1 | inactive | inactive | –
8 | O=C(O)c1ccc2c(c1)S(=O)(=O)c1ccccc1N2CCCCl | inactive | inactive | –
9 | Cc1cc[n+](CCCN2c3ccccc3S(=O)(=O)c3cc(C(=O)O)ccc32)cc1 | inactive | inactive | –
10 | O=C1OC(=O)c2ccc(N3CCCC3)c3cccc1c23 | inactive | inactive | –
11 | C[N+]1=C(/C=C/c2ccc(N3CCNCC3)cc2)C(C)(C)c2ccccc21 | Active | Active | IC50 (A549 [3]): 13.6 µM
12 | C[N+]1=C(/C=C/c2ccc(N3CCCCC3)cc2)C(C)(C)c2ccccc21.[I-] | Active | Active | IC50 (A549 [3]): 1.1 µM; Activity (A549 [4]): Active; Activity (A549 [5]): Non-Toxic; Activity (A549 [6]): Non-Toxic; Activity (A549 [7]): Active; Activity (A549 [8]): Active; Activity (A549 [9]): Active; Activity (A549 [11]): Active; Activity (U-87 MG): Dose-dependent effect; Activity (A549 [12]): Active; inhibition (mTORC1 (Homo sapiens)): Active
13 | O=Cc1ccc2c(c1)c1ccccc1n2CCCCl | inactive | inactive | –
14 | O=C(O)c1ccc(N2C(=O)c3cccc4cccc(c34)C2=O)cc1 | inactive | inactive | –
15 | O=C(O)c1ccc(-c2oc3ccccc3c(=O)c2O)cc1 | inactive | inactive | –
16 | C[N+]1=C(/C=C/c2ccc(N)cc2)C(C)(C)c2ccccc21 | Active | Active | IC50 (A549 [3]): 3.9 µM
17 | CCN(CC)C(=O)c1ccc(-c2oc3ccccc3c(=O)c2O)cc1 | inactive | inactive | –
